According to paper PMC10218234, “Design, Synthesis and Antitumor Activity of 1H-indazole-3-amine Derivatives” (International Journal of Molecular Sciences, 2023):
“Also recorded” adds a separate entry of the source. Like-named read-outs stand apart in the source and are kept apart here.

Key:
[1] = MTT cytotoxicity to normal cells, HEK-293; format: cell-based, human; details: human, HEK-293 cells (normal human embryonic kidney cells); normal cell HEK-293; MTT; read-out: IC50 ± SD, HEK-293
Procedure: (§1) The antiproliferative activity of the target indazole derivatives was evaluated against a panel of human cancer cell lines (human chronic myeloid leukemia cell lines K562; human lung cancer cell lines A549; human prostate cancer cell lines PC-3; human hepatoma cell lines HepG-2) in vitro, and human embryonic kidney cell lines HEK-293 were used to evaluate the cytotoxicity of a normal cell with high activity derivatives by MTT assay. Moreover, 5-fluorouracil (5-Fu), a broad-spectrum drug antitumor drug with therapeutic effects on various cancers, was used as a positive control.
(§2) To investigate the anticancer activity of indazole derivatives, A549, K562, PC3, and Hep-G2 cells were treated with targets compounds respectively for 48 h in a range of concentrations (from 0.625 to 10 μM) and subjected to a proliferation assay using the MTT assay. Exponentially growing cells were seeded at a density of 5000 cells per well in 96-well plates containing 100 μL of fresh growth medium. After allowing the cells to attach for 24 h, target compounds were added. After incubation for 48 h, viable cells were stained with MTT (0.5 mg/mL) for 4 h, and the produced formazan crystals were dissolved with 150 µL of dimethyl sulfoxide. Absorbance was measured at 490 nm using an automated microplate reader (Tecan, Infinite M200 Pro, Männedorf, Switzerland). The relative cell viability was calculated according to the following equation: Cell viability%=experimental OD value/control OD value×100%Cell inhibition%=control OD value−experimental OD value/control OD value×100%
(§3) Cell inhibition%=control OD value−experimental OD value/control OD value×100%

[2] = test system: HEK-293 cells; experiment: MTT cytotoxicity to normal cells, HEK-293; format: cell-based, human; details: for Selectivity index (SI) for Hep-G2 cells: IC50 in HEK-293 divided by IC50 in Hep-G2; for Selectivity index (SI) for K562 cells: IC50 in HEK-293 divided by IC50 in K562
Procedure: as §1, §2, §3

[3] = test system: PC-3 cells; experiment: MTT anti-proliferative assay, PC-3; format: cell-based; details: Homo sapiens, PC-3, 48 h
Procedure: as §1
(§4) Lung (A549), chronic myeloid leukemia (K562), prostate (PC3), and live (Hep-G2) cells were purchased from the Cell Bank of the Chinese Academy of Sciences (Kunming, China). A549, K562, and PC-3 cells were cultured in RPMI-1640 medium and the liver cells Hep-G2 were cultured in MEM medium. All mediums were supplemented with 10% FBS, 100 μg/mL penicillin and 100 μg/mL streptomycin. All cells were cultivated in a 5% CO2 incubator at 37 °C.
as §2, with “Exponentially” for “To investigate the anticancer activity of indazole derivatives, A549, K562, PC3, and Hep-G2 cells were treated with targets compounds respectively for 48 h in a range of concentrations (from 0.625 to 10 μM) and subjected to a proliferation assay using the MTT assay. Exponentially”
as §3

[4] = test system: Hep-G2 cells; experiment: MTT anti-proliferative assay, Hep-G2; format: cell-based; details: Homo sapiens
Procedure: as §1, §4, §2, §3

[5] = test system: K562 cells; experiment: Cell cycle analysis (PI staining, flow cytometry); format: cell-based, human; details: 24 h
Procedure: To further explore the antitumor properties of 6o, the effect of 6o on cell cycle distribution was evaluated. PI staining was used to perform cell cycle analysis.
To analyze the cell cycle, a PI apoptosis detection kit (Solarbio, Wuhan, China) was utilized. After K562 cells were seeded in 6-well plates for 24 h, compound 6o (10, 12 and 14 μM) or positive control was added to the plates for another 24 h. Then, cells were washed three times with PBS, and fixed with 70% ethanol at 4°C for overnight. After fixed, cells were again washed with PBS and incubated at 37 °C with 100 μL RNase A for 30 min. After this, cells were incubated with 400 μL PI for 30 min at 4 °C. After staining, cells were subjected to Flow Cytometry using Cell Quest software (BD, SN: E34297502014) and the PI fluorescence was recorded in the FL2 channel. Data were analyzed using FlowJo V10.

[6] = test system: K562 cells; experiment: MTT anti-proliferative assay, K562; format: cell-based; details: Homo sapiens
Procedure: as §1, §4, §2, §3

[7] = test system: A549 cells; experiment: MTT anti-proliferative assay, A549; format: cell-based; details: Homo sapiens, read-out: IC50 ± SD, A549
Procedure: as §1, §4, §2, §3

[8] = test system: Bax and Bcl-2 expression in K562 cells; experiment: Western blotting of apoptosis-related proteins Bax and Bcl-2; format: cell-based, human; details: K562, 48 h
Procedure: (§5) To quantify the effects of 6o on K562 cell apoptosis, K562 cells were treated with different concentrations of the compound 6o and followed by Annexin V-FITC/PI detection assay.
K562 cells were treated with compound 6o for 48 h, then, lysed in 1×RIPA lysis buffer (Solarbio) with proteinase (Solarbio) and phosphatase inhibitors (Solarbio) for 15 min on ice (proteinase: phosphatase inhibitors: 1 × RIPA lysis buffer = 1:1:100), scraped off from the plate and prepared cell lysates. These lysates were centrifuged at 1.2 × 10^4 rpm at 4 °C for 15 min to collect the supernatants and the protein concentration of each sample was quantified by the BCA protein assay kit (Beyotime, Shanghai, China). Protein was separated by SDS-PAGE and then transferred onto the PVDF membrane. After blocking with 5% skim milk for 2 h, befitting primary antibodies include Bax (Proteintech; Type: Rabbit; Cat No.: 50599-2-lg); Bcl-2 (Proteintech; Type: Mouse; Cat No.: 60178-1-lg); GAPDH (Proteintech; Type: Mouse; Cat No.: 60004-1-lg); β-actin (Proteintech; Type: Rabbit; Cat No.: 81115-1-RR); P53 (Cell signaling; Type: Rabbit; Cat No.: #2527) and MDM2 (Cell signaling; Type: Rabbit; Cat No.: #86934) were sealed in Antibody Dilution Buffer, and cocultivated with the PDF membrane at 4 °C for overnight. […]

[9] = test system: p53 and MDM2 expression in K562 cells; experiment: Western blotting of p53 and MDM2; format: cell-based, human; details: K562, 48 h
Procedure: Loss of p53 activity by deletion, mutation, or MDM2 over-expression, is the most common event in the development and progression of cancer. To confirm the ability of 6o to inhibit the p53 and MDM2 interaction in K562, the expression levels of these two proteins were evaluated by Western blotting assay after 48 h of 6o treatment. […] In summary, 6o could change the expression of p53 and MDM2, disrupting the balance of intracellular p53 protein levels, and eventually inducing apoptosis of K562.
K562 cells were treated with compound 6o for 48 h, then, lysed in 1×RIPA lysis buffer (Solarbio) with proteinase (Solarbio) and phosphatase inhibitors (Solarbio) for 15 min on ice (proteinase: phosphatase inhibitors: 1 × RIPA lysis buffer = 1:1:100), scraped off from the plate and prepared cell lysates. These lysates were centrifuged at 1.2 × 10^4 rpm at 4 °C for 15 min to collect the supernatants and the protein concentration of each sample was quantified by the BCA protein assay kit (Beyotime, Shanghai, China). Protein was separated by SDS-PAGE and then transferred onto the PVDF membrane. […]

[10] = test system: K562 cells; experiment: Annexin V-FITC/PI cell apoptosis detection assay (flow cytometry); format: cell-based, human; details: 48 h
Procedure: as §5
Activation of tumor cell apoptosis plays an important role in treatment cancer. To investigate whether apoptosis could underlie the anticancer activity of 6o, K562 cells were treated with 6o (0, 10, 12 or 14 μM) for 48 h and the percentage of apoptosis was determined by flow cytometry, Annexin V-FITC/PI Apoptosis Detection Kit (BD, Franklin Lakes, NJ, USA) was used. Cells (1 × 10^6/mL per well) were plated in 6-well culture plates and grown for 24 h. After treatment with compound 6o for 48 h, the collected cells were washed two times with ice-cold PBS, counted, and 100 μL of cell suspension with a density of 1 × 10^6 cells/mL was prepared, then incubated with 5 μL Annexin V-FITC and 5 μL Propidium iodide (PI) in the dark for 15 min. After 15 min of incubation and added 400 μL of 1 × binding buffer, and use Cell Quest software (BD, SN: E34297502014) to perform detection on Flow Cytometry (BD, Franklin Lakes, NJ, USA). Data were analyzed using FlowJo V10.

[11] = Table 1, read-out: IC50 ± SD, PC-3
[12] = Table 2, read-out: IC50 ± SD, PC-3
[13] = HepG2, 48 h, Table 1, 48 h, read-out: IC50 ± SD, Hep-G2
[14] = HepG2, 48 h, Table 2, 48 h, read-out: IC50 ± SD, Hep-G2
[15] = HepG2, Table 3, read-out: IC50 ± SD, Hep-G2
[16] = Table 1, 48 h, read-out: IC50 ± SD, K562
[17] = Table 3, read-out: IC50 ± SD, K562
[18] = Table 2, 48 h, read-out: IC50 ± SD, K562

Compound	IC50 at 48 h [1] [µM]	Selectivity index (SI) for Hep-G2 cells [2]	Selectivity index (SI) for K562 cells [2]	IC50 [3, 11] [µM]	IC50 [3, 12] [µM]	IC50 [4, 13] [µM]	IC50 [4, 14] [µM]	IC50 [4, 15] [µM]	IC50 [6, 16] [µM]	IC50 [6, 17] [µM]	IC50 ([7]; Table 1, 48 h) [µM]	IC50 [6, 18] [µM]	melting point [°C]	IC50 ([7]; Table 2, 48 h) [µM]	further results
O=c1[nH]cc(F)c(=O)[nH]1 [5-Fu, 5-fluorouracil, reference compound]	1.16 ± 0.11	0.12	0.14	9.17 ± 3.93	3.47 ± 0.21	9.78 ± 1.58	2.25 ± 0.46	9.78 ± 1.58	8.53 ± 2.27	8.53 ± 2.27	8.37 ± 0.79	–	–	–	increase of the proportion of the G0/G1 phase after drug treatment ([5]; K562, positive control): 10%
O=C(CN1CCN(c2ccncc2)CC1)Nc1n[nH]c2ccc(-c3ccc(Cl)c(Cl)c3)cc12 [6u]	–	–	–	–	27.7 ± 16.9	–	20 ± 3.04	–	–	–	–	> 50	195 to 197	17.6 ± 4.11	–
O=C(CSc1ccc(Br)cc1)Nc1n[nH]c2ccc(-c3cc(F)cc(F)c3)cc12 [compound 5k]	12.2 ± 2.85	3.67	–	12.6 ± 2.17	–	3.32 ± 0.43	–	3.32 ± 0.43	8.86 ± 0.66	–	7.78 ± 0.18	–	204 to 205	–	–
O=C(CN1CCN(c2ccc(C(F)(F)F)cc2)CC1)Nc1n[nH]c2ccc(-c3ccc(Cl)c(F)c3)cc12 [compound 6o]	33.2 ± 3.83	–	6.45	–	8.34 ± 1.55	–	7.37 ± 0.24	–	–	5.15 ± 0.55	–	5.15 ± 0.55	183 to 185	6.73 ± 1.03	expression of Bax (pro-apoptotic protein) [8]: increase; expression of Bcl-2 (apoptosis-inhibiting protein) [8]: decreased; also recorded: reduce; G0/G1 population ([5]; K562, 10 μM): 31.8%; G0/G1 population ([5]; K562, 12 μM): 36.4%; G0/G1 population ([5]; K562, 14 μM): 41.1%; proportion of S phase cells ([5]; K562, 10, 12 and 14 μM, vs negative control): decreased significantly; expression level of p53 protein [9]: up-regulate; expression of MDM2 protein [9]: reduce; total apoptosis rate (early and late apoptosis) ([10]; K562, 10 μM): 9.64%; total apoptosis rate (early and late apoptosis) ([10]; K562, 12 μM): 16.59%; total apoptosis rate (early and late apoptosis) ([10]; K562, 14 μM): 37.72%
